Test results from US20220015402A1, “Mint Flavor Compositions” (The Procter & Gamble Company, priority 2020, published 2022).

What was measured:
[1] = Comparison of cooling attributes of (−)-menthol and racemic menthol in a toothpaste (CREST Cavity formulation); type: in vivo
Source text: The following data helps support the use of racemic menthol to reduce costs of mint flavor compositions herein described. From internal unpublished research, Table B compares replacing (−)-menthol with a racemic menthol in a 1:1 in a toothpaste formulation. Such a direct replacement is not preferred given the reduced cooling profile and olfactory differences; however, a portion of L-menthol is preferably replaced by racemic-menthol to gain cost efficiency while minimizing impact to the overall mint flavor profiles.
Table B is a comparison of attributes between (—)-menthol and racemic menthol in a toothpaste context (using CREST Cavity formulation).

[2] = Expert sensory testing of racemic menthol vs (−)-menthol in toothpaste (CREST Cavity) with standard spearmint flavor; type: in vivo
Method: In separate, unpublished internal experiments, perceptual experiences of racemic menthol are quantified via expert sensory testing. The use of a standard spearmint flavor (minimizing extra menthol contribution) compared racemic menthol to (−)-menthol in a toothpaste formulation (CREST Cavity). There are several sensory observations taken from these experiments. […] These aromatic notes appear during brushing and disappear after 5-10 minutes post expectoration and are more pronounced as concentrations increase.

## CC1CCC(C(C)C)C(O)C1 (racemic) [Racemic Menthol, racemic menthol]
[1]
  Potency compared to L-Menthol: ~0.65-0.7x
  Time Point at Maximum Cooling: ~1 min
[1]; 60 = greatest amount of cooling, 0 = least
  Maximum Cooling (0-60 scale): 35
[1]; cooling
  Maximum Longevity: Up to 20 minutes
[2]
  less potent than (−)-menthol for cooling: 25-30%
